These results are taken from patent US20260199484A1, “PROTAC DEGRADERS OF MLLT1 AND/OR MLLT3” (DARK BLUE THERAPEUTICS LTD, priority 2024, published 2026).

One test relates to human AML. Nature of the test: in vivo mouse model of human AML (procedure of Example 112). Particulars: oral administration, FIG. 1.
The subject of test [1] is MV4-11 cells. Nature of the test: MV4-11 cellular proliferative assay, Assay Format A (CellTiter-Glo, 120 h). The following applies: Homo sapiens, Assay format A, 120 h, read-out: IC50 (MV4-11 cellular proliferative assay). The class given is cell-based. A digest of the protocol: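 MV4-11 cells seeded at 50 cells/well and exposed for 120 h to compound (10 semi-log dilutions, top 30 μM) or DMSO. Viability by CellTiter-Glo luminescence, normalised to DMSO and reference-compound wells; AC50 from Hill fit.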

The test system of test [2] is MV4-11 cells. Nature of the test: MV4-11 cellular proliferative assay, Assay Format B (CTG 2.0, 168 h). The class given is cell-based. The following applies: Homo sapiens, Assay Method B, Table 7, read-out: MV4-11 Antiproliferation IC50. The essentials: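 Cells seeded at 600/well in IMDM + 10% FBS, incubated overnight, then exposed 168 h (7 days) at 37 °C to 10 concentrations, 3-fold dilutions from 1 uM or 100 nM top dose (0.3% DMSO final). Viability by CTG 2.0 luminescence as % of DMSO control; curves fitted by four-parameter logistic regression.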

The next test has as its target T1, MLLT1 (Homo sapiens, UniProt Q03111).
T1 sequence (Q03111 1-559): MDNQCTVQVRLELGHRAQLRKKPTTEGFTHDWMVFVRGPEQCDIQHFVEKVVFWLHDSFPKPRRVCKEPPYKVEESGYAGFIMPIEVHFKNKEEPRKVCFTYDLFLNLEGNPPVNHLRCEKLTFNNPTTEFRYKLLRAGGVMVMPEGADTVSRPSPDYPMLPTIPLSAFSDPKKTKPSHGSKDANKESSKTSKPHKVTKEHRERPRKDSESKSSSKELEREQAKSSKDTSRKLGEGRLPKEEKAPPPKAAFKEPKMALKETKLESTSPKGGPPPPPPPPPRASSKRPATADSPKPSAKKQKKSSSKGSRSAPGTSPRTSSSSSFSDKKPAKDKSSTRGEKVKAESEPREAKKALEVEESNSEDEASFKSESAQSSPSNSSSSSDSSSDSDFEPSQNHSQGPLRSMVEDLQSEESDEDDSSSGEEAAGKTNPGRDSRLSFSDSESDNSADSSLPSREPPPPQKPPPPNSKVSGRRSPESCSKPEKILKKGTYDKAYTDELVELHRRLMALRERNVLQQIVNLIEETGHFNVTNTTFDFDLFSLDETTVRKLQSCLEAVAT
Nature of the test: MLLT1 DC50 and Dmax determination in MV4-11 cells (JESS, 4 h). Particulars: MLLT1 degradation. Also on record: endogenous in cells; host or cells: MV4-11 (ATCC CRL-9591). The class given is cell-based. As to the method: MLLT1 degradation efficacy of compounds was tested in an automated chemiluminescent detection system (JESS, Cat #004-650). MV4-11 (#CRL-9591, ATCC) were seeded at a density of 1.2 million cells/well in a non-treated 6-well cell culture plate in 2.4 mL of complete medium (IMDM+10% FBS+1× Penicillin-Streptomycin). 10 mM DMSO stocks were prepared, and cells were treated with eight concentrations of test compounds, starting from 100 nM, 5-fold dilution, at a final DMSO concentration of 0.1% and incubated for 4 h at 37° C., 5% CO2. Post incubation, cells were centrifuged, washed with HBSS and lysed in 60 μL of RIPA buffer supplemented with Protease inhibitors (sc-24948; Santa Cruz). Protein estimation was done using BCA protein assay kit (23228; Pierce). 4 gg protein lysate (4 μL of 1 μg/μL lysate) was loaded into each well of the JESS cartridge (SM-W004; Bio-techne) and the JESS run was performed using 1:900 dilution of anti-human MLLT1 antibody (ABE2596; Merck) and 1:1200 dilution of anti-human GAPDH antibody (2118; Cell signaling technology) with anti-rabbit secondary detection module (DM-001; Bio-Techne). Post run, data was analysed using “Compass for SW” software for chemiluminescent detection. Peak fit was done using “dropped lines” method. Peak area for MLLT1 and GAPDH was used for the calculation of MLLT1 degradation with respect to DMSO control. Data was shown as “% degradation”. % Degradation was plotted against the respective doses (test compound concentration) and dose-response curve (DRC) was generated using four-parameter logistic equation (non-linear regression). Following parameters for each DRC was captured: DC50 (concentration in nM at which degradation is 50%, interpolated from standard curve and transformed to linear scale), Dmax (maximum % degradation observed). DC50 and Dmax data are captured in Table 7 for Example 1 and Example 110, which is a comparative example.

Where only a bound is given, the exact number is not on record here.

In the case of `Cc1nn(CCCCCCCC#Cc2cccc3c2CN(C2CCC(=O)NC2=O)C3=O)c2cc(C(=O)Nc3cc4[nH]c([C@H]5CCCN5C)cc4cn3)ccc12` (mixture of isomers) [Example 1, 1-(9-(2-(2,6-dioxopiperidin-3-yl)-1-oxoisoindolin-4-yl)non-8-yn-1-yl)-3-methyl-N-(2-((R)-1-methylpyrrolidin-2-yl)-1H-pyrrolo[3,2-c]pyridin-6-yl)-1H-indazole-6-carboxamide], the tumour growth entry in the test on human AML is given as “reduction in tumour growth”. Besides, the IC50 with MV4-11 cells [1] was below 100 nM; in the test with MV4-11 cells [2] it was 6.5 nM. In addition, it took 0.5 nM to reach half-maximal degradation on MLLT1 (DC50). Further, the Dmax (as a rule, the greatest extent of degradation seen) at MLLT1 (maximum % degradation observed) is 87%.
